Assay [1] relates to A-375. The assay is described as follows: Cytotoxicity against human A375 cells assessed as reduction in cell number at 10 to 40 uM after 24 hrs by light microscopic analysis relative to control. The format is functional, cell-based.
Assay [2] addresses Rho-associated protein kinase 2 (Rattus norvegicus) (UniProt Q62868). The assay is described as follows: Inhibition of rat ROCK2 assessed as residual activity at 10 uM relative to control.
The target of assay [3] is Casein kinase I isoform delta (Rattus norvegicus, UniProt Q06486). Briefly: Inhibition of rat CK1delta in presence of 20 uM ATP.
Chain of Casein kinase I isoform delta (Q06486 whole entry, canonical isoform): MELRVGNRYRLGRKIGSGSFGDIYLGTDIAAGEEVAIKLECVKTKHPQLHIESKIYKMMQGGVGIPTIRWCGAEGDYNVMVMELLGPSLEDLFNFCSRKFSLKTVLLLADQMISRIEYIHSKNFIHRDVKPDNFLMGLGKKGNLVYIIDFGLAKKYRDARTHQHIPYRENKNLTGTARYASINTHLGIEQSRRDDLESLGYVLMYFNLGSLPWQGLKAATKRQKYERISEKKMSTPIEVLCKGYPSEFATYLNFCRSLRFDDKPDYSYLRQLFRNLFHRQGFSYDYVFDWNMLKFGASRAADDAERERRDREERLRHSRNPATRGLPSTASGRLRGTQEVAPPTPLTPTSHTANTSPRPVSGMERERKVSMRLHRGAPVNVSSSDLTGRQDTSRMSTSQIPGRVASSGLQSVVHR
Assay [4] relates to A-375. The assay is described as follows: Cell cycle arrest in human A375 cells assessed as accumulation at S phase at 80 uM after 48 hrs by FACS flow cytometric analysis (reference value: 25.1%). The format is functional. On the technique in general: In flow cytometry, cells or beads pass a laser one at a time.
Assay [5] concerns A-375. The assay is described as follows: Cell cycle arrest in human A375 cells assessed as accumulation at S phase at 10 uM after 48 hrs by FACS flow cytometric analysis (reference value: 25.1%). The format is functional.
For assay [6], the species on record is Oryctolagus cuniculus. The assay is described as follows: Inhibition of rabbit MKK1 assessed as residual activity at 10 uM relative to control.
The target of assay [7] is Cyclin-dependent kinase 2 (Homo sapiens) (UniProt P24941). The assay is described as follows: Inhibition of human CDK2 assessed as residual activity at 10 uM relative to control.
For assay [8], the system named is A-375. The assay is described as follows: Cell cycle arrest in human A375 cells assessed as accumulation at G0-G1 phase at 10 uM after 48 hrs by FACS flow cytometric analysis (reference value: 55.4%). It is filed as functional.
The subject of assay [9] is A-375. Briefly: Cell cycle arrest in human A375 cells assessed as accumulation at G2-M phase at 20 uM after 48 hrs by FACS flow cytometric analysis (reference value: 17.3%). It is filed as functional.
Assay [10] has as its system A-375. Briefly: Cell cycle arrest in human A375 cells assessed as accumulation at G0-G1 phase at 40 uM after 48 hrs by FACS flow cytometric analysis (reference value: 55.4%). It is filed as functional.
Assay [11] has as its system A-375. The assay is described as follows: Cell cycle arrest in human A375 cells assessed as accumulation at G2-M phase at 10 uM after 48 hrs by FACS flow cytometric analysis (reference value: 17.3%). It is filed as functional.
Assay [12] deals with A-375. The assay is described as follows: Cell cycle arrest in human A375 cells assessed as accumulation at sub-G1 phase at 10 uM after 48 hrs by FACS flow cytometric analysis (reference value: 2.17%). It is filed as functional.
Assay [13] addresses Dual specificity tyrosine-phosphorylation-regulated kinase 1A (Rattus norvegicus) (UniProt Q63470). The assay is described as follows: Inhibition of rat DYRK1alpha assessed as residual activity at 10 uM relative to control.
Assay [14] deals with Proto-oncogene tyrosine-protein kinase Src (Homo sapiens) (UniProt P12931). The assay is described as follows: Inhibition of human SRC assessed as residual activity at 10 uM relative to control.
Chain of Proto-oncogene tyrosine-protein kinase Src (Homo sapiens) (P12931 2-536 limits assumed): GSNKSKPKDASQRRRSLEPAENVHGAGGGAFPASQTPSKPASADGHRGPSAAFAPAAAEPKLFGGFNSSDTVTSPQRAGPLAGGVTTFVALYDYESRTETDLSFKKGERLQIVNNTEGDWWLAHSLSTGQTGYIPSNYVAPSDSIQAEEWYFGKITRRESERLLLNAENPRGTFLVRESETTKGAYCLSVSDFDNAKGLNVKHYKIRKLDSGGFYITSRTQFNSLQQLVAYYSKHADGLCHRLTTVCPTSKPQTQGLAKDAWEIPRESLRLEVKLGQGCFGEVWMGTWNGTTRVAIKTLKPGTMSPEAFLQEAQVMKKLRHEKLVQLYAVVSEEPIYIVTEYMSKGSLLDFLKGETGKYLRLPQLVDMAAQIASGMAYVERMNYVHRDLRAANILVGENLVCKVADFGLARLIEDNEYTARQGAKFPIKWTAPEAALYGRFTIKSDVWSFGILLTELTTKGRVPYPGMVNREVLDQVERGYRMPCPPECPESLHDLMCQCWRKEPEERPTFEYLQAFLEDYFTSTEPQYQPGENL
The species entered for assay [15] is Rattus norvegicus. Briefly: Inhibition of rat AMPK assessed as residual activity at 10 uM relative to control.
In assay [16] the test system is A-375. The assay is described as follows: Cell cycle arrest in human A375 cells assessed as accumulation at S phase at 40 uM after 48 hrs by FACS flow cytometric analysis (reference value: 25.1%). It is filed as functional.
Assay [17] has as its system A-375. Briefly: Cell cycle arrest in human A375 cells assessed as accumulation at sub-G1 phase at 40 uM after 48 hrs by FACS flow cytometric analysis (reference value: 2.17%). It is filed as functional.
Assay [18] deals with A-375. The assay is described as follows: Cell cycle arrest in human A375 cells assessed as accumulation at G0-G1 phase at 20 uM after 48 hrs by FACS flow cytometric analysis (reference value: 55.4%). The format is functional.
The subject of assay [19] is A-375. Briefly: Cell cycle arrest in human A375 cells assessed as accumulation at S phase at 20 uM after 48 hrs by FACS flow cytometric analysis (reference value: 25.1%). It is filed as functional.
Assay [20] deals with A-375. Briefly: Cell cycle arrest in human A375 cells assessed as accumulation at G2-M phase at 40 uM after 48 hrs by FACS flow cytometric analysis (reference value: 17.3%). The format is functional.
For assay [21], the system named is A-375. The assay is described as follows: Cell cycle arrest in human A375 cells assessed as accumulation at sub-G1 phase at 20 uM after 48 hrs by FACS flow cytometric analysis (reference value: 2.17%). It is filed as functional.
For assay [22], the target named is T1, Serine/threonine-protein kinase Chk1 (Homo sapiens, UniProt O14757).
T1 sequence (O14757 whole entry): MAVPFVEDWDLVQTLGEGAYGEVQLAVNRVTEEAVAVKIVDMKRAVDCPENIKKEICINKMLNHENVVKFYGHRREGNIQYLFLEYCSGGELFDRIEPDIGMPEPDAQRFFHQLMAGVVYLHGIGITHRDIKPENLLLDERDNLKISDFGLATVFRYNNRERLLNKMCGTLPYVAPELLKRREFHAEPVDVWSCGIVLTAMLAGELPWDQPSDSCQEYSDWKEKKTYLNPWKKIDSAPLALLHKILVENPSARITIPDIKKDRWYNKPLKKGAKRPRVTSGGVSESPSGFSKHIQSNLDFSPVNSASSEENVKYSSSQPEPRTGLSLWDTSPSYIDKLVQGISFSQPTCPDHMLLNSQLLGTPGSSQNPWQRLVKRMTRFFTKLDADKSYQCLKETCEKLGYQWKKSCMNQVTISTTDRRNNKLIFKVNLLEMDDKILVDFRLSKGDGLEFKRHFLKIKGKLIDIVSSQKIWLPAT
Briefly: Inhibition of human CHK1 in presence of 20 uM ATP.

Assay [23] deals with Mitogen-activated protein kinase 14 (Homo sapiens, UniProt Q16539). Briefly: Inhibition of human p38alpha MAPK in presence of 50 uM ATP. To be noted: read-out: IC50.
Chain of Mitogen-activated protein kinase 14 (Q16539 whole entry): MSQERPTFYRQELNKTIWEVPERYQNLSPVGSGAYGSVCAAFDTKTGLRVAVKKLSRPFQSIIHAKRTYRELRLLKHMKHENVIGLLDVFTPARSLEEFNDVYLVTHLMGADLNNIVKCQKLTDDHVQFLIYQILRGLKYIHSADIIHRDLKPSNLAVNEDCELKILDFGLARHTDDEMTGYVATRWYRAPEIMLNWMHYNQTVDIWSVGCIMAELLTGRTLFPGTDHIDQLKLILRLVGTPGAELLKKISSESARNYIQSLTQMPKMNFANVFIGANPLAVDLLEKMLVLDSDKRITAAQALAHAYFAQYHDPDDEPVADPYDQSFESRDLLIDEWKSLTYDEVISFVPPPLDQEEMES
In assay [24] the test system is A-375. The assay is described as follows: Cell cycle arrest in human A375 cells assessed as accumulation at sub-G1 phase at 80 uM after 48 hrs by FACS flow cytometric analysis (reference value: 2.17%). It is filed as functional.
In assay [25] the test system is A-375. The assay is described as follows: Cell cycle arrest in human A375 cells assessed as accumulation at G0-G1 phase at 80 uM after 48 hrs by FACS flow cytometric analysis (reference value: 55.4%). It is filed as functional.
For assay [26], the target named is Casein kinase I isoform delta (Rattus norvegicus) (UniProt Q06486). Briefly: Inhibition of rat CK1delta assessed as residual activity at 10 uM relative to control.
Chain of Casein kinase I isoform delta (Rattus norvegicus) (Q06486 whole entry, looked up, canonical isoform): as the sequence (Q06486 whole entry, canonical isoform) above
Assay [27] concerns A-375. Briefly: Cell cycle arrest in human A375 cells assessed as accumulation at G2-M phase at 80 uM after 48 hrs by FACS flow cytometric analysis (reference value: 17.3%). It is filed as functional.
The species named for assay [28] is Oryctolagus cuniculus. The assay is described as follows: Inhibition of rabbit MKK1 assessed as residual activity at 25 uM relative to control.
The target of assay [29] is Dual specificity tyrosine-phosphorylation-regulated kinase 1A (Rattus norvegicus) (UniProt Q63470). Briefly: Inhibition of rat DYRK1alpha assessed as residual activity at 25 uM relative to control.
The species entered for assay [30] is Bos taurus. Briefly: Inhibition of cow PKA assessed as residual activity at 25 uM relative to control.
The target of assay [31] is Cyclin-dependent kinase 2 (Homo sapiens) (UniProt P24941). Briefly: Inhibition of human CDK2 assessed as residual activity at 25 uM relative to control.
For assay [32], the target named is Casein kinase I isoform delta (Rattus norvegicus) (UniProt Q06486). Briefly: Inhibition of rat CK1delta assessed as residual activity at 25 uM relative to control.
Assay [33] concerns the target Proto-oncogene tyrosine-protein kinase Src (Homo sapiens) (UniProt P12931). The assay is described as follows: Inhibition of human SRC assessed as residual activity at 25 uM relative to control.
For assay [34], the target named is Rho-associated protein kinase 2 (Rattus norvegicus) (UniProt Q62868). Briefly: Inhibition of rat ROCK2 assessed as residual activity at 25 uM relative to control.
Chain of Rho-associated protein kinase 2 (Rattus norvegicus) (Q62868 whole entry, looked up, canonical isoform): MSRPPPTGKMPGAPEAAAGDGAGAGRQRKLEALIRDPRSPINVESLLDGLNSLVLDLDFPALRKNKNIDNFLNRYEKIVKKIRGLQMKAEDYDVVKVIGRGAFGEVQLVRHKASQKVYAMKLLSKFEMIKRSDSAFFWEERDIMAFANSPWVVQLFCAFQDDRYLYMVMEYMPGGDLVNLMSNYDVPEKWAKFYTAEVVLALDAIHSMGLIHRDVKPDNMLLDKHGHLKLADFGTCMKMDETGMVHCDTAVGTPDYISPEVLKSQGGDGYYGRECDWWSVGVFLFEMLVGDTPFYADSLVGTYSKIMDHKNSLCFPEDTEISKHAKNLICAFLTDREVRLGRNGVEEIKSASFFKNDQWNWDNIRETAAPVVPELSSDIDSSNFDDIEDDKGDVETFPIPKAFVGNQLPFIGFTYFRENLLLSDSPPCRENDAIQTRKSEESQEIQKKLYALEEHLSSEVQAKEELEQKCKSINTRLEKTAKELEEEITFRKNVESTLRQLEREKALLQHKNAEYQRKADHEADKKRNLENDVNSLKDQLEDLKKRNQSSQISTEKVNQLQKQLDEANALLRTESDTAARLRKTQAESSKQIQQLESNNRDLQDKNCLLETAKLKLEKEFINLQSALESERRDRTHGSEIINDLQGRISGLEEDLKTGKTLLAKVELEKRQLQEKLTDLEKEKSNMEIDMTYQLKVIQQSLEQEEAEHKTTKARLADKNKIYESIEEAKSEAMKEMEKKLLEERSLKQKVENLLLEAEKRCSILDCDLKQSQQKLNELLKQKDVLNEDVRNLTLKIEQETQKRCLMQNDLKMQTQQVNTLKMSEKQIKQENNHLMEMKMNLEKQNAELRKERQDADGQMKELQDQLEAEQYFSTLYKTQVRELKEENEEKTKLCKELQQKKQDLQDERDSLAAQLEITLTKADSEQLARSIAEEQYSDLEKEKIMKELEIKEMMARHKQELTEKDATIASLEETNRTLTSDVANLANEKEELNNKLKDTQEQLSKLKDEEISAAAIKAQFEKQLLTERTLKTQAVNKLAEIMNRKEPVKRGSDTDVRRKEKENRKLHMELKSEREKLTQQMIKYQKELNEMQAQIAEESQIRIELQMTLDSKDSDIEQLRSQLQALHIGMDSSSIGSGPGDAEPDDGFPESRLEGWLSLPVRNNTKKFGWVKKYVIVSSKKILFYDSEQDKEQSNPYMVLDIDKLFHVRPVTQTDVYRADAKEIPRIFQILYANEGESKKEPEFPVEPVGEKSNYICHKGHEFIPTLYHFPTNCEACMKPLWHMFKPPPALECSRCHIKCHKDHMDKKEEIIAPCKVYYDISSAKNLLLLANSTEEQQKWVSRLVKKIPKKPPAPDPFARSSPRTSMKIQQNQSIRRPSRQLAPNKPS
The species named for assay [35] is Rattus norvegicus. The assay is described as follows: Inhibition of rat AMPK assessed as residual activity at 25 uM relative to control.
For assay [36], the target named is T2, Casein kinase I/MDM2 (Homo sapiens) (UniProt Q00987+P48729). Briefly: Inhibition of CK1-MDM2 complex in human A375 cells assessed as increase in […] protein level at 0.2 to 40 uM after 24 hrs by immunoblotting analysis. The format is cell-based. To be noted: A-375.
T2 sequence (P48729 whole entry, looked up): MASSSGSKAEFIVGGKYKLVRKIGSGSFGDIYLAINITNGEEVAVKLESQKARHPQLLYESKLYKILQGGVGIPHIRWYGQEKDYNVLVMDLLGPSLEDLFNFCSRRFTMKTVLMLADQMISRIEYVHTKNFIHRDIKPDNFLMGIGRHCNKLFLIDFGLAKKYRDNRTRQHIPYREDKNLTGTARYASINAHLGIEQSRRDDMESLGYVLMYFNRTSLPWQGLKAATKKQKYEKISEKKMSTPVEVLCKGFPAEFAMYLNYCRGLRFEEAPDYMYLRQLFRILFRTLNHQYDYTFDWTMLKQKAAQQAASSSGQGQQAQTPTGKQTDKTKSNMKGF
T2 sequence (Q00987 whole entry, looked up): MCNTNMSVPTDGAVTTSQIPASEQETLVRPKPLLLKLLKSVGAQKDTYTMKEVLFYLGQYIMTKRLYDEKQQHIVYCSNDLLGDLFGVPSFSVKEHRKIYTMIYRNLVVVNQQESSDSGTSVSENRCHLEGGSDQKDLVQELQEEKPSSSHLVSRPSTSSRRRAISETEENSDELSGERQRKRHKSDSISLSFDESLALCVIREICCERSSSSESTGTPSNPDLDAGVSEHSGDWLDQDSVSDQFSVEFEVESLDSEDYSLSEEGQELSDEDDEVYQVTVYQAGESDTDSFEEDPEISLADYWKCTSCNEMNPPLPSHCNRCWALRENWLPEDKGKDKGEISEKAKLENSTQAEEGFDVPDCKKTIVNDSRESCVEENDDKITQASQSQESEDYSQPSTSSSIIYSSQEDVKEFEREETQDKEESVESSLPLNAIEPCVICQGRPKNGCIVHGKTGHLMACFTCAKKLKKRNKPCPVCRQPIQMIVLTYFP
Assay [37] has as its target T2, Casein kinase I/MDM2 (Homo sapiens). The assay is described as follows: Inhibition of CK1-MDM2 complex in human A375 cells assessed as increase in p53 protein level at 0.2 to 40 uM after 24 hrs by immunoblotting analysis. It is filed as cell-based. Conditions: A-375. For orientation: Immunoblotting shows a protein as a band on a membrane.
For assay [38] the target is unchanged. Briefly: Inhibition of CK1-MDM2 complex in human A375 cells assessed as decrease in MDM2 protein level at 0.2 to 40 uM after 24 hrs by immunoblotting analysis. The format is cell-based. To be noted: A-375.
Assay [39] shares this target. Briefly: Inhibition of CK1-MDM2 complex in human A375 cells assessed as effect on p21 protein level at 0.2 to 40 uM after 24 hrs by immunoblotting analysis. It is filed as cell-based. Conditions: A-375.

pIC50: −log10 of the molar value. The source made the active and inactive calls. The rule behind the calls is not given here.

The results in this text go back to ChEMBL document CHEMBL2429821, “A Casein kinase 1/Checkpoint kinase 1 pyrazolo-pyridine protein kinase inhibitor as novel activator of the p53 pathway” (Bioorg Med Chem Lett, 2013).

Turning to `NC(=O)c1ccc(-c2nc(-c3ccc4c(c3)OCCO4)c(-c3ccccn3)[nH]2)cc1`, in assay [1], the outcome was Active. Moreover, the Activity in assay [2] came to 105%; in assay [4], 9.33%; in assay [5], 26.6%; in [6] it was 93%; in assay [7] it was 113%; in [8], 55.4%. Moreover, the Activity stood at 18.8% in assay [9]; 43.1% in [10]; 13.7% in assay [11]; 3.92% in [12]; 86% in assay [13]; 82% in assay [14]. For the same compound, the Activity was found to be 98% in [15]; 24.3% in assay [16]; 22.3% in [17]; 41.9% in [18]; 31.9% in assay [19]; 9.66% in assay [20]. In addition, the Activity in assay [21] worked out at 6.96%; in [24], 32.7%; in [25], 52.9%; in assay [26], 4%; in [27] it was 4.9%. The pIC50 (in general, the IC50 on a negative log10 scale, so that one unit is a factor of ten) in assay [3] was 6.45; in [23], 5.38. Moreover, the IC50 result in [22] was “Not Active”.
On to `COc1cc(OC)c(C=C2C(=O)Nc3ccccc32)c(OC)c1`, for which the Activity was determined as 86% in assay [28]; 73% in assay [29]; 82% in assay [30]; 83% in [31]; 9% in assay [32]; 70% in [33]. Further, the Activity in [34] stood at 78%; in assay [35] it was 71%.
For `O=C(Nc1n[nH]c2ncc(-c3cccnc3)cc12)C1CCCC1`, the inhibition result in [36], in assay [37] and in [38] was “Active” throughout. Moreover, the inhibition result in assay [39] was “inactive”.
